Measurements as given in article PMC6348446 (Journal of Medicinal Chemistry, 2018).
Read-outs that look alike come from different tables or passages of the source.

Columns and labels:
BRD9 = target: T1, BRD9 (Homo sapiens, UniProt Q9H8M2); experiment: Western blot of BRD9 levels in HeLa cells after compound treatment; assay type: cell-based; conditions: 1 μM compound; for BRD9 degradation: HeLa cells; for remaining activity at 1 µM: Table 2, % of total protein remaining relative to 0.1% DMSO vehicle, HeLa cell lysates
T1 construct: Western blot analysis of BRD9 and BRD7 levels after treatment of HeLa cells; endogenous in cells; host or cells: HeLa
T1 sequence (Q9H8M2 1-597): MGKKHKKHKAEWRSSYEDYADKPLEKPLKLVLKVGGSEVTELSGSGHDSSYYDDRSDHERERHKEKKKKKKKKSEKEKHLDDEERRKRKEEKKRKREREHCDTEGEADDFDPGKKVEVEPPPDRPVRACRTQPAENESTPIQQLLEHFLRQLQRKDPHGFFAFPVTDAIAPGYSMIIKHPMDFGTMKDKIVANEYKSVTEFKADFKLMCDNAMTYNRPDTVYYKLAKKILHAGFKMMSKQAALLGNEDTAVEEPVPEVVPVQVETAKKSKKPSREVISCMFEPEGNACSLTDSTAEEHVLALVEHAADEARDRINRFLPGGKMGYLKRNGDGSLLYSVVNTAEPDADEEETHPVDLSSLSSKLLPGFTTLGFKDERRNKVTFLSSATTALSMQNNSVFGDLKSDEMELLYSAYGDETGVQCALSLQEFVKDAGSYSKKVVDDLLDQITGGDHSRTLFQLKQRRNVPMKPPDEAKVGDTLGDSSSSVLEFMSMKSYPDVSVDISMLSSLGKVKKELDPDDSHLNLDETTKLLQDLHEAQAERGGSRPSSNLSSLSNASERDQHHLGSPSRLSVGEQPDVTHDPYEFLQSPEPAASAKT

BRD7 = target: T2, BRD7 (Homo sapiens, UniProt Q9NPI1); experiment: Western blot of BRD7 levels in HeLa cells after compound treatment; assay type: cell-based; conditions: 1 μM compound; for BRD7 degradation: HeLa cells; for remaining activity at 1 µM: Table 2, % of total protein remaining relative to 0.1% DMSO vehicle, HeLa cell lysates
T2 construct: Western blot analysis of BRD9 and BRD7 levels after treatment of HeLa cells; endogenous in cells; host or cells: HeLa
T2 sequence (Q9NPI1 1-651): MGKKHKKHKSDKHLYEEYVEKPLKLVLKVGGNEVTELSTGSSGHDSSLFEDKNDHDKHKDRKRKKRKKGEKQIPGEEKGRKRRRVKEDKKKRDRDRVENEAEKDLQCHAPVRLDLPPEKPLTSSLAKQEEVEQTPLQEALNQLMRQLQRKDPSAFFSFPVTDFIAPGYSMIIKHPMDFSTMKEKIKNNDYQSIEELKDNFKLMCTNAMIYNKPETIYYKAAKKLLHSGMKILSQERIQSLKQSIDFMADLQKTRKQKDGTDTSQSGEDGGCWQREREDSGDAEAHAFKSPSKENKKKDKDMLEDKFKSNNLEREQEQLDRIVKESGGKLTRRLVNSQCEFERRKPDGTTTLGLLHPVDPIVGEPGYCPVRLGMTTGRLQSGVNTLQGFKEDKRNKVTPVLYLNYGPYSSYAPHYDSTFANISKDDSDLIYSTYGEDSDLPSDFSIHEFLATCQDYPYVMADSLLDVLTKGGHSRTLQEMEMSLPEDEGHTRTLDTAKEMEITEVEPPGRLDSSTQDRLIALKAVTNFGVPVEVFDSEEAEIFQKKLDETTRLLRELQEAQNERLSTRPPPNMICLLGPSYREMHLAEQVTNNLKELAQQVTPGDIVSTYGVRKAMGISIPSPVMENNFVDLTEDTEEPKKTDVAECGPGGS
Protocol: HeLa and Hek293 cells were seeded at either 0.3 × 10^6 or 0.5 × 10^6 cells per well in 6-well plate in 2 mL of medium. At 80% confluency, cells were treated with compounds at the desired concentration, with final DMSO concentration of 0.1% v/v. Cells were incubated at 37 °C and 5% of CO2 for the desired time before harvesting. For protein extraction from adherent cells, cells were washed twice with DPBS (Gibco) and lysed with RIPA buffer (Sigma-Aldrich), supplemented with cOmplete Mini EDTA-free protease inhibitor cocktail (Roche). Insoluble material was removed by centrifugation at 14 000 rpm for 15 min at 4 °C. Supernatant was collected and protein concentration was quantified by Bradford assay (Thermo Scientific no. 23200, mean of two replicates). For RI-1 cells, (1–1.5) × 10^6 cells/mL were seeded in 6-well plate in 2 mL of medium. The day after, cells were treated with compounds at the desired concentration, with final DMSO concentration of 0.1% v/v. Before harvesting, cells were incubated at 37 °C and 5% CO2 for the desired time. Cells were washed twice with DPBS (Gibco) and lysed with RIPA buffer (Sigma-Aldrich), supplemented with cOmplete Mini EDTA-free protease inhibitor cocktail (Roche). Lysates were sonicated (10 s) and centrifuged at 14 000 rpm for 20 min at 4 °C. Supernatant was collected, and protein concentration was quantified by Bradford assay (mean of two replicates). For EOL-1 and A-204 cell line, 20 000 cells were seeded in 300 μL per well in a 24-well plate and incubated at 37 °C overnight. Compounds were added from DMSO stock solution using a digital dispenser D300 (Tecan), normalizing for added DMSO, and cells were incubated at 37 °C for 18 h. Medium was removed, and cells were washed with PBS and lysed in 80 μL of lysis buffer (1% Triton, 350 mM KCl, 10 mM Tris, pH 7,4, phosphatase-protease inhibitor cocktail (Thermo Scientific no. 1861281), 10 mM DTT, Benzonase 0.5 μL/ml (Novagen no. 70746 10KU, 25 U/μL)) for 30 min on ice before insoluble debris was pelleted by centrifugation.
Proteins were resolved by SDS–PAGE on NuPage 4–12% Bis-Tris Midi Gel (Invitrogen) and transferred to Amersham Protran 0.45 NC nitrocellulose membrane (GE Healthcare) using wet transfer. The membrane was blocked with 5% w/v milk in Tris-buffered saline (TBS) with 0.1% w/v Tween-20. The following primary antibodies at the given concentration were used: anti β-actin (Cell Signaling Technology, 4970S, 13E5) 1:2000, anti-Brd9 (Bethyl A303-781A) 1:1000, anti-Brd7 (Bethyl A302-304A) 1:1000, VHL rabbit Ab (Cell Signaling Technology, no. 68547S) 1:1000, anti-CRBN (Novus Bio, NBP 1-9-1810) 1:1000, anti-actin hFAB rhodamine antibody, Bio-Rad, no. 12004164. Following incubation with horseradish peroxidase-conjugated secondary antibody (Cell Signaling Technology) or IRDye secondary antibody (Licor), bands were developed using Amersham ECL Prime Western blotting detection kit on Amersham Hyperfilm ECL film (Amersham) or ChemiDoc imaging system (Bio-Rad). ImageJ software was used for band quantification, and the last was reported as relative amount as ratio of each protein band relative to the lane’s loading control. Then the values obtained were normalized to 0.1% DMSO vehicle control. Alternatively, protein levels were determined on a WES capillary electrophoresis instrument (Proteinsimple) using a BRD9 antibody (Bethyl A303-781A) and a GAPDH antibody (Abcam no. ab9485) for normalization. DC50 and half-lives were determined by assuming a linear model between the two data points across 50% protein level mark.

| BRD9 degradation (BRD9; 4 h) | BRD7 degradation (BRD7; 4 h) | remaining activity at 1 µM (BRD9; 4 h, read-out: BRD9 4 h (%)) [%] | remaining activity at 1 µM (BRD9; 16 h, read-out: BRD9 16 h (%)) [%] | remaining activity at 1 µM (BRD7; 4 h, read-out: BRD7 4 h (%)) [%] | remaining activity at 1 µM (BRD7; 16 h, read-out: BRD7 16 h (%)) [%] | BRD9 degradation (BRD9; 16 h) [%] | BRD7 degradation (BRD7; 16 h) [%] | SMILES |
| --- | --- | --- | --- | --- | --- | --- | --- | --- |
| strong degradation | no BRD7 degradation |  |  |  |  |  |  | COc1cc(-c2cn(C)c(=O)c3cnccc23)cc(OC)c1CN1CCN(CCOCCOCCOCCOCC(=O)NCCNc2cccc3c2C(=O)N(C2CCC(=O)NC2=O)C3=O)CC1 (stereo not drawn) [Compound 8, 14-(4-(2,6-Dimethoxy-4-(2-methyl-1-oxo-1,2-dihydro-2,7-naphthyridin-4-yl)benzyl)piperazin-1-yl)-N-(2-((2-(2,6-dioxopiperidin-3-yl)-1,3-dioxoisoindolin-4-yl)amino)ethyl)-3,6,9,12-tetraoxatetradecanamide] |
|  |  | 74 | 73 | 95 | 113 |  |  | COc1cc(-c2cn(C)c(=O)c3cnccc23)cc(OC)c1CN1CCN(C(=O)COCCOCCOCC(=O)N[C@H](C(=O)N2C[C@H](O)C[C@H]2C(=O)NCc2ccc(-c3scnc3C)cc2)C(C)(C)C)CC1 [Compound 25] |
| at most 20% | at most 20% | 99 |  | 102 | 119 | ≤ 30 | ≤ 30 | COc1cc(-c2cn(C)c(=O)c3cnccc23)cc(OC)c1CN1CCN(CCOCCOCCOCCOCC(=O)N[C@H](C(=O)N2C[C@H](O)C[C@H]2C(=O)NCc2ccc(-c3scnc3C)cc2)C(C)(C)C)CC1 [Compound 6, (2S,4R)-1-((S)-2-(tert-Butyl)-17-(4-(2,6-dimethoxy-4-(2-methyl-1-oxo-1,2-dihydro-2,7-naphthyridin-4-yl)benzyl)piperazin-1-yl)-4-oxo-6,9,12,15-tetraoxa-3-azaheptadecanoyl)-4-hydroxy-N-(4-(4-methylthiazol-5-yl)benzyl)pyrrolidine-2-carboxamide] |
| strong degradation | no BRD7 degradation |  |  |  |  |  |  | COc1cc(-c2cn(C)c(=O)c3cnccc23)cc(OC)c1CN1CCN(CCOCCOCC(=O)NCCNc2cccc3c2C(=O)N(C2CCC(=O)NC2=O)C3=O)CC1 (stereo not drawn) [Compound 7, 2-(2-(2-(4-(2,6-Dimethoxy-4-(2-methyl-1-oxo-1,2-dihydro-2,7-naphthyridin-4-yl)benzyl)piperazin-1-yl)ethoxy)ethoxy)-N-(2-((2-(2,6-dioxopiperidin-3-yl)-1,3-dioxoisoindolin-4-yl)amino)ethyl)acetamide] |
